Assay results reported in patent publication US20130085133A1, “ANTI-VIRAL TREATMENT AND ASSAY TO SCREENFOR ANTI-VIRAL AGENT” (Sourthern Research Institute Office of Commercialization …, priority 2010, published 2013).

Key:
[1] = cytotoxicity assay (percent viability of HEp-2 cells, Cell Titer-Glo); conditions: human
Procedure: (§1) Test compounds were evaluated by measuring their antiviral activity, cell toxicity, and selectivity. Test compounds were serially diluted in a plate to plate matrix or “stacked plate” matrix. All 320 compounds in a source plate were diluted together resulting in a 10 point dose response dilution series. It was visualized as a serial dilution series proceeding vertically through a stack of plates with the high dose plate on top and the low dose plate on the bottom.
(§2) Following the six day incubation period, the assay plates were equilibrated to room temperature for 30 min and an equal volume (30 μL) of Cell Titer-Glo reagent (Promega Inc.) was added to each well using a WellMate (Matrix, Hudson, N.H.) and plates were incubated for an additional 10 min at room temperature. At the end of the incubation, luminescence was measured using a Perkin Elmer Envision™ multi-label reader (PerkinElmer, Wellesley, Mass.) with an integration time of 0.1 s.
(§3) Data was analyzed using ActivityBase software (IDBS, Inc, Guilford, UK). thirty two control wells containing cells only and twenty four wells containing cells and virus were included on each assay plate and used to calculate Z′ value for each plate and to normalize the data on a per plate basis. […] Eight ribavirin positive control wells were included on each plate for quality control purposes, but were not used in Z′ calculations. […] In the toxicity assay, results are described as percent viability and the calculation is the same.
(§4) An EC50 (for CPE inhibition) and IC50 (for cell viability) were calculated for each substance using the 4 parameter Levenburg-Marquardt algorithm with parameter A locked at 0 and parameter B locked at 100. Standard deviation, normalized chi2 and hill slope were used to evaluate the curves. Values were not extrapolated beyond the tested range of concentrations.

[2] = system: respiratory syncytial virus (RSV) strain Long; assay: microbe, parasite or virus in culture; conditions: human respiratory syncytial virus, HEp-2, 144 h
Procedure: The assay measures RSV virus-induced CPE in HEp-2 cells using cell viability as the end point.
Two vials of RSV (strain Long) containing 1×10^7 pfu/mL was thawed using an Eppendorf thermomixer for 13 min at 15° C., with shaking at 350 rpm. […] The cells were incubated for 18-20 h at 37° C., 5% CO2, 90% relative humidity. The medium was aspirated and the cells washed with 10 mL PBS without Mg^2+ or Ca^2+. Cells were harvested from flasks using 0.25% trypsin-EDTA. The cells were resuspended in a freezing medium of 95% fetal calf serum and 5% DMSO to a final cell density of 2×10^6 cells/mL. One mL aliquots of this virus infected cell suspension were dispensed to cryovials and cells were rate frozen to −80° C. Frozen infected cells were then transferred to −150° C. for long term storage.
as §1
Cells were harvested and resuspended to 80,000 cells per ml in Complete DMEM/F12.
Cells were thawed in a room temperature water bath with gentle agitation. The tube was inverted 5-10. Cells were diluted to 80,000 cells per ml by adding the contents of the vial to 24 ml of cold (4° C.) media.
Twenty five ul of uninfected HEp-2 cells were plated in the cell control wells. Frozen infected cells were combined with uninfected HEp-2 cells at a 1:100 ratio. Twenty five ul of the cell mixture was added to the virus control and compound wells. All cell plating was conducted using a Matrix WellMate and cells were maintained at room temperature with stirring during the plating process. The assay plates were incubated for six days at 37° C., 5% CO2 and 90% relative humidity.
as §2, §3, §4

| EC50 [2] | SMILES | CC50 at 6 days ([1]; HEp-2 cells) | CC50 at 6 days [1] |
| --- | --- | --- | --- |
| 19.4 mg/L | CNC(=O)Nc1ccccc1C(=O)Nc1ccc(C)cc1 [AB00290142] | > 25 mg/L | – |
| 46.5 µM | Cc1noc(C)c1S(=O)(=O)N1CCN(Cc2ccccc2C#N)CC1 [AB00785032] | > 50 µM | – |
| 22.2 mg/L | COc1ccc(-c2cc(C(=O)O)c3cc(Br)ccc3n2)c(OC)c1 [AB00313218] | > 25 mg/L | – |
| 24 µM | Cc1cc(C)n(-c2ccc(C(=O)Nc3cc(Cl)ccc3C)cc2)n1 [AB00712667] | > 50 µM | – |
| 38.8 µM | NC(=O)c1ncn([C@@H]2O[C@H](CO)[C@@H](O)[C@H]2O)n1 [AB00430481] | > 50 µM | – |
| 18.9 mg/L | CC(=O)Nc1ccc(C(=O)OCc2ccc(C(C)=O)cc2)cc1 [AB00359127] | > 25 mg/L | – |
| 22.6 mg/L | O=C(O)c1ccc(NC(=S)NC(=O)c2ccc(-c3ccc(Br)cc3)o2)cc1 [AB00301183] | > 25 mg/L | – |
| 20.9 mg/L | CCOc1cc(C2CC(=O)Nc3c2ccc2ccccc32)cc(Cl)c1O (stereo not drawn) [AB00317685] | > 25 mg/L | – |
| 14.1 mg/L | O=C(c1ccccc1C(=O)N1CCc2ccccc2C1)N1CCc2ccccc2C1 [AB00310729] | > 25 mg/L | – |
| 28.3 µM | CCc1ccc(Nc2nnc(SCC(=O)Nc3cc(OC)c([N+](=O)[O-])cc3C)s2)cc1 [AB00728303] | > 50 µM | – |
| 13.2 mg/L | Cc1sc(NC(=O)CCc2ccccc2)c(C(=O)O)c1C [AB00304690] | > 25 mg/L | – |
| 21.2 mg/L | CC(=O)c1cccc(NC(=S)NNC(=S)Nc2ccc(F)cc2F)c1 [AB00349666] | > 25 mg/L | – |
| 21.1 mg/L | COc1ccccc1C(=O)N(CCCCN1C(=O)c2ccccc2C1=O)c1ccc(Cl)cc1 [AB00301352] | > 25 mg/L | – |
| 11.5 µM | Cc1cccc(NC(=O)COC(=O)c2ccc(F)cc2N)c1C [AB00756405] | > 50 µM | – |
| 17.1 mg/L | Cc1cccc(C(=O)Nc2cc(C(C)C)c(O)cc2C)c1 [AB00305611] | > 25 mg/L | – |
| 19.6 mg/L | O=c1[nH]cnc2sc3c(c12)CCCCC3 [AB00276706] | > 25 mg/L | – |
| 12.7 mg/L | O=C(O)c1ccc(-c2cccc(Cl)c2Cl)o1 [AB00287600] | > 25 mg/L | – |
| 20.3 mg/L | Cn1c(SCCc2ccccc2)nnc1-c1cccc([N+](=O)[O-])c1 [AB00309238] | > 25 mg/L | – |
| 22.2 mg/L | Cc1ccnc(NCc2cc(Br)ccc2O)c1 [AB00318952] | > 25 mg/L | – |
| 1.14 µM | C=CC/N=c1\scc(-c2ccc(C)cc2)n1/N=C/c1ccccn1 [AB00718339] | > 50 µM | – |
| 17.8 mg/L | O=C1c2ccccc2C(=O)N1CCCCN(C(=O)c1ccccc1[N+](=O)[O-])c1ccc(Cl)cc1 [AB00301378] | > 25 mg/L | – |
| 17.3 mg/L | c1ccc(-c2cc3c(N4CCN(c5ccccc5)CC4)ncnc3s2)cc1 [AB00306917] | > 25 mg/L | – |
| 39.2 µM | OCc1cccc2c(Br)cccc12 [AB00375379] | > 50 µM | – |
| 23.8 mg/L | CC(Oc1ccc(Cl)cc1Cl)C(=O)Nc1ccc(F)c(F)c1 (stereo not drawn) [AB00314248] | > 25 mg/L | – |
| 11.5 mg/L | COc1ccc(NC(=O)c2ccc(C)c(S(=O)(=O)Nc3ccccc3C)c2)cc1OC [AB00364640] | > 25 mg/L | – |
| 12.2 µM | CSc1ccc(Cl)c(C(=O)Nc2ccc(N3CCCCC3)cc2)c1 [AB00717474] | > 50 µM | – |
| 13.7 mg/L | Cc1cc(SCCC#N)nc2ccccc12 [AB00371866] | > 25 mg/L | – |

| EC50 [2] | SMILES | CC50 at 6 days ([1]; HEp-2 cells) | CC50 at 6 days [1] |
| --- | --- | --- | --- |
| 18 mg/L | CCc1c(C)sc(NC(=O)c2ccc(C)o2)c1C(N)=O [AB00313012] | > 25 mg/L | – |
| 15 mg/L | CCC(C)N(C(=O)c1cc(Cl)ccc1OC)C(C)CC (stereo not drawn) [AB00310767] | > 25 mg/L | – |
| 19.8 mg/L | Cc1cc(C)cc(C(=O)Nc2ccc(C#N)cc2)c1 [AB00340723] | > 25 mg/L | – |
| 12.7 mg/L | Cc1cc(C)n2nc(C(=O)Nc3cnn(C45CC6CC(CC(C6)C4)C5)c3)cc2n1 [AB00371387] | > 25 mg/L | – |
| 10.6 mg/L | Fc1cccc(NC(=S)NNC(=S)Nc2ccc(Cl)cc2)c1 [AB00348154] | > 25 mg/L | – |
| 16.4 mg/L | Cc1ccc(-c2nc3cc(N)ccc3o2)cc1Br [AB00076694] | > 25 mg/L | – |
| 16.4 mg/L | NC(=O)CC1Nc2ccccc2NC1=O (stereo not drawn) [AB00294484] | > 25 mg/L | – |
| 7.64 mg/L | COc1cc(-c2nnc(SCc3cc(Cl)cc(Cl)c3)o2)cc(OC)c1OC [AB00292171] | > 25 mg/L | – |
| 12.4 mg/L | O=C(Nc1cccc(Br)c1)C1CCN(C(=O)c2ccc([N+](=O)[O-])cc2)CC1 [AB00317214] | > 25 mg/L | – |
| 15.1 mg/L | Cc1ccc(N(CCCCN2C(=O)c3ccccc3C2=O)C(=O)c2cccc(C)c2)cc1 [AB00302020] | > 25 mg/L | – |
| 33.7 µM | CNc1ncnc2c1ncn2[C@H]1C[C@@H](CO)[C@H](O)[C@@H]1O [AB00430484] | > 50 µM | – |
| 20.3 mg/L | COC(=O)c1ccc(NC(=O)c2ccc(C)c(Br)c2)cc1 [AB00302921] | > 25 mg/L | – |
| 18.8 mg/L | Cn1c(SCC(=O)N2c3ccccc3SC3C=CC=CC32)nnc1-c1ccccc1 (stereo not drawn) [AB00370949] | > 25 mg/L | – |
| 38.4 µM | N#Cc1c(Cl)nc(N)c(N)c1C(F)(F)F [AB00430151] | > 50 µM | – |
| 20.7 mg/L | NC(=O)c1ccccc1NC(=O)CSc1nc2ccccc2o1 [AB00132114] | > 25 mg/L | – |
| 23.4 µM | Cc1ccc(-c2csc3ncn(Cc4cc(=O)oc5cc(Br)ccc45)c(=O)c23)cc1 [AB00785889] | > 50 µM | – |
| 2.39 mg/L | COC(=O)C1=C(C)N(Cc2ccccc2)C(=O)NC1c1ccc(C(=O)OC)cc1 (stereo not drawn) [AB00318401] | > 25 mg/L | – |
| 24.2 mg/L | Cn1c(SC/C=C/c2ccccc2)nnc1-c1cccs1 [AB00318335] | > 25 mg/L | – |
| 41.5 µM | O=C(c1cccc(OC(F)F)c1)N1CCc2cc([N+](=O)[O-])ccc21 [AB00764110] | > 50 µM | – |
| 19.2 mg/L | Cc1ccc(S(=O)(=O)NC2CCCC(C(=O)Oc3ccc4c(c3)oc(=O)c3ccccc34)C2)cc1 (stereo not drawn) [AB00297971] | > 25 mg/L | – |
| 35.6 µM | Nc1c(N=Nc2ccc(-c3ccc(N=Nc4cc(S(=O)(=O)O)c5ccccc5c4N)cc3)cc2)cc(S(=O)(=O)O)c2ccccc12 [AB00443629] | > 50 µM | – |
| 15.3 mg/L | COCCNC(=O)Nc1ccc2nc(-c3cccs3)c(-c3cccs3)nc2c1 [AB00302454] | > 25 mg/L | – |
| 14.5 mg/L | CCOC(=O)c1ccc(NC(=O)CN(c2ccccc2Br)S(C)(=O)=O)cc1 [AB00282821] | > 25 mg/L | – |
| 22.5 mg/L | Cc1ccc2nc(SCCC#N)nc(C)c2c1 [AB00284847] | > 25 mg/L | – |
| 49.8 µM | CC(=O)Nc1ccc(S(=O)(=O)N(C)CC(=O)Nc2ccccc2Oc2ccccc2)cc1 [AB00798716] | > 50 µM | – |
| 26.7 µM | C=CCn1c(SC(C)C(=O)Nc2cc(C(F)(F)F)ccc2Cl)nnc1-c1ccccc1OC (stereo not drawn) [AB00741842] | > 50 µM | – |

| SMILES | EC50 [2] | CC50 at 6 days ([1]; HEp-2 cells) | CC50 at 6 days [1] |
| --- | --- | --- | --- |
| CN(C)C(=O)Oc1ccc2ccccc2c1Cl [AB00339302] | 12.3 mg/L | – | > 25 mg/L |
